Where “and” joins values, the source holds several entries; their conditions need not be identical. Equal values may be shown once. Inconclusive results and toxic doses are left out. Rule for the calls: active = survival T/C of 150% or more; inactive = T/C below 125% in these data.
Test system: CD2F1 mice, L1210 leukemia ip, survival T/C
Assay: NCI In Vivo Anticancer Drug Screen. Data for tumor model L1210 Leukemia (intraperitoneal) in CD2F1 (CDF1) mice
Conditions: higher = longer survival
Procedure, shortened: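 Mice carrying a transplanted tumor received test compound or vehicle alone. The value is the measurement in the treated group divided by that in the vehicle-treated control group.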

[1] = endpoint: mean survival time, dose: 50.0 mg/kg/injection, schedule: Q01DX009 (ip), vehicle: saline with Tween-80
[2] = endpoint: mean survival time, dose: 100.0 mg/kg/injection, schedule: Q01DX009 (ip), vehicle: saline with Tween-80
[3] = endpoint: mean survival time, dose: 200.0 mg/kg/injection, schedule: Q01DX009 (ip), vehicle: saline with Tween-80
[4] = endpoint: mean survival time, dose: 100.0 mg/kg/injection, schedule: Q01DX001 (ip), vehicle: saline with Tween-80
[5] = endpoint: mean survival time, dose: 200.0 mg/kg/injection, schedule: Q01DX001 (ip), vehicle: saline with Tween-80
[6] = endpoint: mean survival time, dose: 400.0 mg/kg/injection, schedule: Q01DX001 (ip), vehicle: saline with Tween-80
[7] = endpoint: mean survival time, dose: 100.0 mg/kg/injection, schedule: Q04DX002 (ip), vehicle: Klucel (hydroxypropylcellulose) (HPC)
[8] = endpoint: mean survival time, dose: 200.0 mg/kg/injection, schedule: Q04DX002 (ip), vehicle: Klucel (hydroxypropylcellulose) (HPC)
[9] = endpoint: mean survival time, dose: 400.0 mg/kg/injection, schedule: Q04DX002 (ip), vehicle: Klucel (hydroxypropylcellulose) (HPC)
[10] = endpoint: mean survival time, dose: 100.0 mg/kg/injection, schedule: Q04DX003 (ip), vehicle: saline with Tween-80
[11] = endpoint: mean survival time, dose: 200.0 mg/kg/injection, schedule: Q04DX003 (ip), vehicle: saline with Tween-80
[12] = endpoint: mean survival time, dose: 400.0 mg/kg/injection, schedule: Q01DX009 (ip), vehicle: saline with Tween-80
[13] = endpoint: mean survival time, dose: 400.0 mg/kg/injection, schedule: Q04DX003 (ip), vehicle: saline with Tween-80
[14] = endpoint: mean survival time, dose: 100.0 mg/kg/injection, schedule: Q01DX001 (ip), vehicle: saline
[15] = endpoint: mean survival time, dose: 200.0 mg/kg/injection, schedule: Q01DX001 (ip), vehicle: saline
[16] = endpoint: mean survival time, dose: 400.0 mg/kg/injection, schedule: Q01DX001 (ip), vehicle: saline

Measured: T/C

CC(C)OC(=O)Nc1ccccc1Cl
inactive: endpoint: mean survival time, dose: 100.0 mg/kg/injection, schedule: Q04DX003 (ip), vehicle: saline sonified 92 % of control | endpoint: mean survival time, dose: 200.0 mg/kg/injection, schedule: Q04DX003 (ip), vehicle: saline sonified 94 % of control | endpoint: mean survival time, dose: 400.0 mg/kg/injection, schedule: Q04DX003 (ip), vehicle: saline sonified 94 % of control

O=c1n(CCCl)c(=O)n(CCCl)c(=O)n1CCCl
inactive: [1] 101 % of control | [2] 100 % of control | [3] 101 % of control

C=CCCC(Cc1ccccc1)C1=NC(C)(C)CC(C)O1 (stereo not given)
inactive: endpoint: mean survival time, dose: 6.25 mg/kg/injection, schedule: Q01DX001 (ip), vehicle: saline 102 % of control | endpoint: mean survival time, dose: 12.5 mg/kg/injection, schedule: Q01DX001 (ip), vehicle: saline 96 % of control | endpoint: mean survival time, dose: 25.0 mg/kg/injection, schedule: Q01DX001 (ip), vehicle: saline 97 % of control

COc1cc2c(cc1O)-c1cc3ccc(OC)c(OC)c3c[n+]1CC2
inactive: endpoint: mean survival time, dose: 25.0 mg/kg/injection, schedule: Q04DX002 (ip), vehicle: saline 111 % of control | endpoint: mean survival time, dose: 25.0 mg/kg/injection, schedule: Q04DX003 (ip), vehicle: suspension in saline 94 % of control | endpoint: mean survival time, dose: 50.0 mg/kg/injection, schedule: Q04DX002 (ip), vehicle: saline 97 % of control | endpoint: mean survival time, dose: 50.0 mg/kg/injection, schedule: Q04DX003 (ip), vehicle: suspension in saline 90 % of control | endpoint: mean survival time, dose: 100.0 mg/kg/injection, schedule: Q04DX002 (ip), vehicle: saline 104 % of control | endpoint: mean survival time, dose: 100.0 mg/kg/injection, schedule: Q04DX003 (ip), vehicle: suspension in saline 102 % of control | endpoint: mean survival time, dose: 200.0 mg/kg/injection, schedule: Q04DX002 (ip), vehicle: saline 104 % of control | endpoint: mean survival time, dose: 200.0 mg/kg/injection, schedule: Q04DX003 (ip), vehicle: suspension in saline 109 % of control

C[n+]1c(/C=C\c2ccc(Cl)cc2)ccc2ccccc21
inactive: endpoint: mean survival time, dose: 3.13 mg/kg/injection, schedule: Q01DX009 (ip), vehicle: saline with Tween-80 96 % of control | endpoint: mean survival time, dose: 6.25 mg/kg/injection, schedule: Q01DX009 (ip), vehicle: saline with Tween-80 98 % of control | endpoint: mean survival time, dose: 6.25 mg/kg/injection, schedule: Q04DX003 (ip), vehicle: saline with Tween-80 98 % of control | endpoint: mean survival time, dose: 12.5 mg/kg/injection, schedule: Q04DX003 (ip), vehicle: saline with Tween-80 90 % of control

CCOC(=O)COc1ccc(OC)cc1C=O
inactive: [4] 93 % of control | [5] 93 % of control | [6] 97 % of control

O=[N+]([O-])c1cc(S(=O)(=O)O)cc([N+](=O)[O-])c1Cl
inactive: endpoint: mean survival time, dose: 25.0 mg/kg/injection, schedule: Q01DX009 (ip), vehicle: saline 103 % of control | endpoint: mean survival time, dose: 50.0 mg/kg/injection, schedule: Q01DX009 (ip), vehicle: saline 96 % of control | endpoint: mean survival time, dose: 100.0 mg/kg/injection, schedule: Q01DX009 (ip), vehicle: saline 98 % of control and 103 % of control

Nc1cccc(/C=C/c2cccc([N+](=O)[O-])c2)c1
inactive: [7] 98 % of control | [8] 103 % of control | [9] 103 % of control

COc1ccc(-c2[nH]c(=S)[nH]c(=O)c2CCO)cc1
inactive: [2] 93 % of control | [10] 90 % of control | [11] 88 % of control | [12] 92 % of control | [13] 95 % of control

CC(C)NC(=O)C1C2CCC(CC2)C1C(=O)NC(C)C (stereo not given)
inactive: [10] 98 % of control | [11] 98 % of control | [13] 95 % of control

CC(=O)OCC(=O)C1CCC2C3CCC4CC(OC(C)=O)CCC4(C)C3CCC12C (stereo not given)
inactive: [4] 91 % of control | [5] 91 % of control | [6] 105 % of control

CCOC(=O)/C(C#N)=C1/C=Cc2ccccc2N1
inactive: [2] 102 % of control | [10] 109 % of control | [3] 96 % of control | [11] 97 % of control | [12] 96 % of control | [13] 97 % of control

COc1cc(Cl)ccc1NC(=O)OCCOc1ccc(Cl)cc1
inactive: [1] 91 % of control | [2] 88 % of control | [3] 91 % of control

CN(C)Cc1c(-c2ccccc2)c(CN(C)C)n2ccccc12
inactive: endpoint: mean survival time, dose: 75.0 mg/kg/injection, schedule: Q01DX001 (ip), vehicle: saline 97 % of control

CCC(C)C1NC(=O)C(NC(=O)c2c3nc4c(C(=O)NC5C(=O)NC(C(C)CC)C(=O)N6CCCC6C(=O)N(C)CC(=O)N(C)C(C(C)C)C(=O)OC5C)cc(N)c(C)c4oc-3c(C)c(=O)c2N)C(C)OC(=O)C(C(C)C)N(C)C(=O)CN(C)C(=O)C2CCCN2C1=O (stereo not given)
inactive: endpoint: mean survival time, dose: 25.0 micrograms/kg/injection, schedule: Q01DX009 (ip), vehicle: water 116 % of control | endpoint: mean survival time, dose: 50.0 micrograms/kg/injection, schedule: Q01DX009 (ip), vehicle: water 121 % of control

Cc1ccc(S(=O)(=O)N(O)S(=O)(=O)c2ccc(C)cc2)cc1
inactive: [4] 101 % of control | [2] 94 % of control | [5] 94 % of control | [3] 92 % of control | [6] 100 % of control | [12] 94 % of control

O=C1OCc2ccc3ccccc3c21
inactive: endpoint: mean survival time, dose: 50.0 mg/kg/injection, schedule: Q01DX001 (ip), vehicle: saline 97 % of control | [14] 89 % of control | [15] 93 % of control | [16] 93 % of control

CCCCOP(=O)(N=C=S)OCCCC
inactive: endpoint: mean survival time, dose: 25.0 mg/kg/injection, schedule: Q04DX002 (ip), vehicle: saline with Tween-80 94 % of control | endpoint: mean survival time, dose: 50.0 mg/kg/injection, schedule: Q04DX002 (ip), vehicle: saline with Tween-80 102 % of control | endpoint: mean survival time, dose: 100.0 mg/kg/injection, schedule: Q04DX002 (ip), vehicle: saline with Tween-80 90 % of control and 96 % of control

CC(C)(C)OOCC1CO1 (stereo not given)
inactive: [2] 92 % of control | [10] 98 % of control | [3] 94 % of control | [11] 105 % of control | [12] 98 % of control | [13] 96 % of control

CC1COCC(C)N1N=Nc1ccccc1-c1nc(N)c2ccccc2n1 (stereo not given)
inactive: [7] 88 % of control | [8] 92 % of control | [9] 98 % of control

CCS(=O)(=O)c1c(C(N)=O)ncn1C1OC(CO)C(O)C1O (stereo not given)
inactive: endpoint: median survival time, dose: 9.13 mg/kg/injection, schedule: Q01DX005 (ip), vehicle: saline 91 % of control | endpoint: median survival time, dose: 18.25 mg/kg/injection, schedule: Q01DX005 (ip), vehicle: saline 102 % of control | endpoint: median survival time, dose: 36.5 mg/kg/injection, schedule: Q01DX005 (ip), vehicle: saline 102 % of control | endpoint: median survival time, dose: 73.0 mg/kg/injection, schedule: Q01DX005 (ip), vehicle: saline 102 % of control | endpoint: median survival time, dose: 146.0 mg/kg/injection, schedule: Q01DX005 (ip), vehicle: saline 100 % of control

CCCCCCCCCCCCCCCC(=O)Oc1ccc(/C(CC)=C(/CC)c2ccc(OC(=O)CCCCCCCCCCCCCCC)cc2)cc1
inactive: [2] 91 % of control

O=C(O)C1C2c3ccccc3C(C1C(=O)O)[n+]1ccccc12 (stereo not given)
inactive: [14] 96 % of control | [15] 102 % of control | [16] 93 % of control

CSc1ncc(C(=O)O)c(SC(C)C)n1
inactive: endpoint: mean survival time, dose: 50.0 mg/kg/injection, schedule: Q04DX003 (ip), vehicle: saline with Tween-80 91 % of control | [4] 102 % of control | [10] 93 % of control | [5] 92 % of control | [11] 87 % of control

CCOC(=O)C1=C(C)N(Cc2ccccc2)C(C)=C(C(=O)OCC)C1(C)C
inactive: [2] 107 % of control | [3] 109 % of control | [12] 107 % of control

CCCC(O)(CC)C1CCCC1C (stereo not given)
inactive: [1] 100 % of control | [2] 95 % of control | [3] 100 % of control
